Measurements: patent US12291519B2, “2-hydroxycycloalkane-1-carbamoyl” (Idorsia Pharmaceuticals Ltd, priority 2019, dated 2025)

What was measured:
human Gal-1 (hGal-1) = assay: Competitive binding assay: biotinylated hGal-1 binding to microplate-adsorbed asialofetuin (ASF); conditions: Activity on hGal-1; binding of biotinylated hGal-1 to ASF-coated plates; mean values
Summary of the method: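 Biotinylated hGal-1 (300–1000 ng/mL; optionally a cysteine-free all-serine variant) incubated 3 h at 4 °C with compound on asialofetuin-coated plates, then streptavidin-peroxidase 1 h at 4 °C. ABTS readout at OD 410 nm after 30–45 min; IC50 given as mean of several runs.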

human Gal-3 (hGal-3) = human Gal-3 (hGal-3) (Homo sapiens (Human), UniProt P17931); assay: Competitive binding assay: biotinylated hGal-3 binding to microplate-adsorbed asialofetuin (ASF); conditions: Activity on hGal-3; binding of biotinylated hGal-3 to ASF-coated plates; mean values
Chain of human Gal-3 (hGal-3) (P17931 whole entry): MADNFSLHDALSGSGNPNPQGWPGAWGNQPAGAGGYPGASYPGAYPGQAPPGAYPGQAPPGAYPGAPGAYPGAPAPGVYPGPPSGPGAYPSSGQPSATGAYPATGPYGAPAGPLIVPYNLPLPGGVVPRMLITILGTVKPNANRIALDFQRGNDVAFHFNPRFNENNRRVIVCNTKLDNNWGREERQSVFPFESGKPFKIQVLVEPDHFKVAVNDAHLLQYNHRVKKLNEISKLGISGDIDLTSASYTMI
Summary of the method: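 Serially diluted compounds competed with biotinylated human Gal-3 for binding to plate-adsorbed asialofetuin over 3 h at 4 °C. Bound Gal-3 was detected with streptavidin-peroxidase (80 ng/mL, 1 h, 4 °C) and ABTS substrate. IC50 values are means of several measurements.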

Chain of human Gal-1 (hGal-1) (P09382 2-135 limits assumed): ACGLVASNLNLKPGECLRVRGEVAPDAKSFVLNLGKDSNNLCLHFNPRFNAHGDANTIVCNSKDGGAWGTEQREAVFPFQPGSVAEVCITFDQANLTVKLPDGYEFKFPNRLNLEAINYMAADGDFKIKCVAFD

| Compound | IC50 (human Gal-1 (hGal-1)) [nM] | IC50 (human Gal-3 (hGal-3)) [nM] |
| --- | --- | --- |
| CC(=O)O[C@@H]1[C@@H](n2cc(-c3cc(F)c(F)c(F)c3)nn2)[C@@H](O)[C@@H](CO)O[C@H]1C(=O)N(Cc1ccnn1C)[C@H]1CCCC[C@@H]1O [Example 43, (2R,3R,4S,5R,6R)-5-hydroxy-2-(((1S,2S)-2-hydroxycyclohexyl)((1-methyl-1H-pyrazol-5-yl)methyl)carbamoyl)-6-(hydroxymethyl)-4-(4-(3,4,5-trifluorophenyl)-1H-1,2,3-triazol-1-yl)tetrahydro-2H-pyran-3-yl acetate] | 2670 | 76 |
| CO[C@@H]1[C@@H](n2cc(-c3cc(F)c(F)c(F)c3)nn2)[C@@H](O)[C@@H](CO)O[C@H]1C(=O)N(Cc1cccc(Cl)c1)[C@H]1CCCC[C@@H]1O [Example 54] | 2660 | 20 |
| CO[C@@H]1[C@@H](n2cc(-c3cc(F)c(F)c(F)c3)nn2)[C@@H](O)[C@@H](CO)O[C@H]1C(=O)N(Cc1ccnn1C)[C@H]1CCCC[C@@H]1O [Example 32] | 905 | 122 |
| CO[C@@H]1[C@@H](n2cc(-c3cc(F)c(F)c(F)c3)nn2)[C@@H](O)[C@@H](CO)O[C@H]1C(=O)N(Cc1ccccc1Cl)[C@H]1CCCC[C@@H]1O [Example 12, (2R,3R,4S,5R,6R)-N-(2-chlorobenzyl)-5-hydroxy-N-((1S,2S)-2-hydroxycyclohexyl)-6-(hydroxymethyl)-3-methoxy-4-(4-(3,4,5-trifluorophenyl)-1H-1,2,3-triazol-1-yl)tetrahydro-2H-pyran-2-carboxamide] | 497 | 52 |
| CO[C@@H]1[C@@H](n2cc(-c3cc(F)c(F)c(F)c3)nn2)[C@@H](O)[C@@H](CO)O[C@H]1C(=O)N(c1cccc(Cl)c1)[C@H]1CCCC[C@@H]1O [Example 58] | 729 | 21 |

Second part, the compound after the results:

| IC50 (human Gal-1 (hGal-1)) [nM] | IC50 (human Gal-3 (hGal-3)) [nM] | Compound |
| --- | --- | --- |
| 158 | 8 | CO[C@@H]1[C@@H](n2cc(-c3ccc(C)c(F)c3)nn2)[C@@H](O)[C@@H](CO)O[C@H]1C(=O)N(c1cc(Br)cc(C#N)c1)[C@H]1CCCC[C@@H]1O [Example 200, (2R,3R,4S,5R,6R)-N-(3-bromo-5-cyanophenyl)-4-(4-(3-fluoro-4-methylphenyl)-1H-1,2,3-triazol-1-yl)-5-hydroxy-N-((1S,2S)-2-hydroxycyclohexyl)-6-(hydroxymethyl)-3-methoxytetrahydro-2H-pyran-2-carboxamide] |
| 6830 | 97 | CO[C@@H]1[C@@H](n2cc(-c3cc(F)c(F)c(F)c3)nn2)[C@@H](O)[C@@H](CO)O[C@H]1C(=O)N(c1ccc2ccccc2c1)[C@H]1CCCC[C@@H]1O [Example 197, (2R,3R,4S,5R,6R)-5-hydroxy-N-((1S,2S)-2-hydroxycyclohexyl)-6-(hydroxymethyl)-3-methoxy-N-(naphthalen-2-yl)-4-(4-(3,4,5-trifluorophenyl)-1H-1,2,3-triazol-1-yl)tetrahydro-2H-pyran-2-carboxamide] |
| 403 | 14 | CO[C@@H]1[C@@H](n2cc(-c3cc(F)c(F)c(F)c3)nn2)[C@@H](O)[C@@H](CO)O[C@H]1C(=O)N(c1cc(Cl)cc(Br)c1)[C@H]1CCCC[C@@H]1O [Example 96, (2R,3R,4S,5R,6R)-N-(3-bromo-5-chlorophenyl)-5-hydroxy-N-((1S,2S)-2-hydroxycyclohexyl)-6-(hydroxymethyl)-3-methoxy-4-(4-(3,4,5-trifluorophenyl)-1H-1,2,3-triazol-1-yl)tetrahydro-2H-pyran-2-carboxamide] |
| 359 | 37 | CO[C@@H]1[C@@H](n2cc(-c3ccc(Cl)c(Cl)c3)nn2)[C@@H](O)[C@@H](CO)O[C@H]1C(=O)N(c1cc(F)cc(C#N)c1)[C@H]1CCCC[C@@H]1O [Example 187, (2R,3R,4S,5R,6R)-N-(3-cyano-5-fluorophenyl)-4-(4-(3,4-dichlorophenyl)-1H-1,2,3-triazol-1-yl)-5-hydroxy-N-((1S,2S)-2-hydroxycyclohexyl)-6-(hydroxymethyl)-3-methoxytetrahydro-2H-pyran-2-carboxamide] |
